As usually defined, the IC50 is the concentration needed to halve the response being measured.

Structures are written as SMILES.

In the assay the target is RORγt (Homo sapiens (Human), UniProt P51449). Kind of assay: RORγt luciferase reporter assay in CHO-K1 cells (RORgamma inhibitory activity). Type of assay: cell-based. As to conditions: CHO-K1 cells stably transfected with RORγt, transiently transfected with pFR Luc; 18-20 hours treatment; luminescence; read-out: In-vitro IC50 value IC50. Background: A reporter such as luciferase makes a cellular process visible.
RORγt, sequence (P51449 other isoform, or with tags, fused parts or gaps, species assumed): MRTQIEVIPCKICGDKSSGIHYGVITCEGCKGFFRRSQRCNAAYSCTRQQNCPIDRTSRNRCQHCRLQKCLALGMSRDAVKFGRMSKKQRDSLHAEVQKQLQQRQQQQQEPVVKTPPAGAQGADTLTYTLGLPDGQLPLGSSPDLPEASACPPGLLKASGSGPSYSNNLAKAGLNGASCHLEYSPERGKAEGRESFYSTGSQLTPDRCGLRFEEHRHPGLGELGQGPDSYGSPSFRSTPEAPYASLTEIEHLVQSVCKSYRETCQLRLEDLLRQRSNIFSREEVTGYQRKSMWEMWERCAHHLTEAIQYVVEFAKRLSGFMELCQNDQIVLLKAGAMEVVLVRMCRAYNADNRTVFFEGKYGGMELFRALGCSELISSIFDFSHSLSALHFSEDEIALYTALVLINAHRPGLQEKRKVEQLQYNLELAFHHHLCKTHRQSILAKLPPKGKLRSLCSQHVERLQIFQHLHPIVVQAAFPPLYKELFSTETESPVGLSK
Experimental: The representative compounds are referred to as the test compounds.
CHO-K1 cells stably transfected with RORγt are maintained in MEM-EBS with 5% FBS, 1% penicillin streptomycin solution and 1 mg/mL G418. The cells are seeded at a density of 200000 cells/mL in white 96 well flat bottom plate. Post 16-18 hours incubation, the cells are transiently transfected with pFR Luc (50 ng/well DNA) for four hours. The cells are then treated with different doses of the test compounds in MEM EBS media with 10% FBS and 1% penicillin streptomycin. DMSO is used as vehicle control. After 18-20 hours treatment, the cells are lysed with lysis buffer (40 mM HEPES, 20 mM EGTA, 50 mM β-glycerophosphate, 10% glycerol and 1% Triton X-100 in distilled water) for 0.5 hour and luminescence is read using Tecan Safire reader at 1000 milli second integration time.
With `CCS(=O)(=O)c1ccc(CC(=O)Nc2ccc3c(c2)CCCC3(O)c2ccc(OC)cc2)cc1` (centres unmarked) [Example 43, 2-(4-(Ethylsulfonyl)phenyl)-N-(5-hydroxy-5-(4-methoxyphenyl)-5,6,7,8-tetrahydronaphthalen-2-yl)acetamide], the IC50 lay within 0.01 to 50 nM.
As for `CCS(=O)(=O)c1ccc(CC(=O)Nc2ccc(C3=CCC(O)CC3)c(C(F)(F)F)c2)cc1` (centres unmarked) [Example 34, 2-(4-(Ethylsulfonyl)phenyl)-N-(4′-hydroxy-2-(trifluoromethyl)-2′,3′,4′,5′-tetrahydro-[1,1′-biphenyl]-4-yl)acetamide], the IC50 lay within 0.01 to 50 nM.
Take `CCS(=O)(=O)c1ccc(CC(=O)Nc2ccc(OC3CCCCC3)c(C(F)(F)F)c2)cc1` [Example 23, N-(4-(Cyclohexyloxy)-3-(trifluoromethyl)phenyl)-2-(4-(ethylsulfonyl)phenyl)acetamide]: the half-maximal inhibitory concentration (IC50) was in the range of 50 to 100 nM.
On to `CCS(=O)(=O)c1ccc(CC(=O)Nc2ccc(C3=CCC(=O)CC3)c(C(F)(F)F)c2)cc1` [Example 24, 2-(4-(Ethylsulfonyl)phenyl)-N-(4′-oxo-2-(trifluoromethyl)-2′,3′,4′,5′-tetrahydro-[1,1′-biphenyl]-4-yl)acetamide], for which the IC50 is 0.01 to 50 nM.
`CCS(=O)(=O)c1ccc(CC(=O)Nc2ccc(C3CCCCC3)cc2)cc1` [Example 25, N-(4-Cyclohexylphenyl)-2-(4-(ethylsulfonyl)phenyl)acetamide]: the IC50 lay in the range of 0.01 to 50 nM.
